These results are taken from patent US10758534B2 (Vertex Pharmaceuticals Incorporated, priority 2014, dated 2020).

T1 sequence (P13569 with tags, fused parts or gaps DEL508-508): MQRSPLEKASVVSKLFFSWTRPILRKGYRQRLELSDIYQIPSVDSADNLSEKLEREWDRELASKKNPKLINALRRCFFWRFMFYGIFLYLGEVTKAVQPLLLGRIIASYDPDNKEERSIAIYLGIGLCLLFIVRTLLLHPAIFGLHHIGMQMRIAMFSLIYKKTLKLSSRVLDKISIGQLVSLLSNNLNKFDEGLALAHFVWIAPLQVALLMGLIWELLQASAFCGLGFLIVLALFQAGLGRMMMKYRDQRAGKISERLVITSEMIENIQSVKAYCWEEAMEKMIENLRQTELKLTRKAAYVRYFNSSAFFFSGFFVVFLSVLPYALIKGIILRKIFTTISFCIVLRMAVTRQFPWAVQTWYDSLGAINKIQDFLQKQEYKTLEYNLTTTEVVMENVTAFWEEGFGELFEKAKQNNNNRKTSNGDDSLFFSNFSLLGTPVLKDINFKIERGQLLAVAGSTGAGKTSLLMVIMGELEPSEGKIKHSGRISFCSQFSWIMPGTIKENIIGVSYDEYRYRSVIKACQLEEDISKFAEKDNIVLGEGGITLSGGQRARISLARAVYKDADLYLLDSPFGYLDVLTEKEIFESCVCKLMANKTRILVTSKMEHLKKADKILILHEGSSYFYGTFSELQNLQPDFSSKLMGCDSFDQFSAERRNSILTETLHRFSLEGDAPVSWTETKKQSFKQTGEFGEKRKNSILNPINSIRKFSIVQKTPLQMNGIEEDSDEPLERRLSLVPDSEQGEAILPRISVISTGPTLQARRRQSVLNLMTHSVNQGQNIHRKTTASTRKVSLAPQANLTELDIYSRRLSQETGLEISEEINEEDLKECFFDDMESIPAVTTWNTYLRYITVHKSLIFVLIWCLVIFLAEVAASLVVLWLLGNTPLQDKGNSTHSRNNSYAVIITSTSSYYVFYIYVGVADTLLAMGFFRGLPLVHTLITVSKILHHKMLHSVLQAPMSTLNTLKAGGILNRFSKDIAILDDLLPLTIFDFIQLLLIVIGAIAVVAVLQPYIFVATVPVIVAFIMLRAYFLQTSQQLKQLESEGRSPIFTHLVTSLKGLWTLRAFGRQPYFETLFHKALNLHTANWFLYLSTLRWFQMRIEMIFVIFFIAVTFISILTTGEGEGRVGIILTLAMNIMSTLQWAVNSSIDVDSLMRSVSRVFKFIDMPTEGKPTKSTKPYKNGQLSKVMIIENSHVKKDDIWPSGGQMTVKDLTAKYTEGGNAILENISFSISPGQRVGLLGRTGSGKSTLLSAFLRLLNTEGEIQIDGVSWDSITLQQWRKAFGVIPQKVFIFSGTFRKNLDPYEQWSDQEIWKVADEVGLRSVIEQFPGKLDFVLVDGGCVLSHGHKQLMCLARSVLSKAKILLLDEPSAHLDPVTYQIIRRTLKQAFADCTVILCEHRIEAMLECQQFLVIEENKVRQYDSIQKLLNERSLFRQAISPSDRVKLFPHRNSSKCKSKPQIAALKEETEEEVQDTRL

The assay has as its target T1, F508del (Homo sapiens, UniProt P13569, DEL508-508).
T1 construct: expressed in transfected cells
The assay can be described thus: Protocol 1: membrane potential optical assay (FLIPR III, voltage sensing dye), identification of potentiator compounds. The format is cell-based. Particulars: Table 3, compounds of Table 1. From the text: Membrane Potential Optical Methods for Assaying F508del Modulation Properties of Compounds
The assay utilizes fluorescent voltage sensing dyes to measure changes in membrane potential using a fluorescent plate reader (e.g., FLIPR III, Molecular Devices, Inc.) as a readout for increase in functional F508del in NIH 3T3 cells. The driving force for the response is the creation of a chloride ion gradient in conjunction with channel activation by a single liquid addition step after the cells have previously been treated with compounds and subsequently loaded with a voltage sensing dye.
Identification of Potentiator Compounds
To identify potentiators of F508del, a double-addition HTS assay format was developed. This HTS assay utilizes fluorescent voltage sensing dyes to measure changes in membrane potential on the FLIPR III as a measurement for increase in gating (conductance) of F508del in temperature-corrected F508del NIH 3T3 cells. The driving force for the response is a Cl^− ion gradient in conjunction with channel activation with forskolin in a single liquid addition step using a fluorescent plate reader such as FLIPR III after the cells have previously been treated with potentiator compounds (or DMSO vehicle control) and subsequently loaded with a redistribution dye.
Bath Solution #1: (in mM) NaCl 160, KCl 4.5, CaCl2 2, MgCl2 1, HEPES 10, pH 7.4 with NaOH.
Chloride-free bath solution: Chloride salts in Bath Solution #1 (above) are substituted with gluconate salts.
NIH3T3 mouse fibroblasts stably expressing F508del are used for optical measurements of membrane potential. The cells are maintained at 37° C. in 5% CO2 and 90% humidity in Dulbecco's modified Eagle's medium supplemented with 2 mM glutamine, 10% fetal bovine serum, 1×NEAA, β-ME, 1× pen/strep, and 25 mM HEPES in 175 cm^2 culture flasks. For all optical assays, the cells were seeded at ˜20,000/well in 384-well matrigel-coated plates and cultured for 2 hrs at 37° C. before culturing at 27° C. for 24 hrs. for the potentiator assay. For the correction assays, the cells are cultured at 27° C. or 37° C. with and without compounds for 16-24 hours.
Consider `CC1CN(c2ncccc2C(=O)NS(=O)(=O)c2cccc(NCc3cc(F)ccc3F)n2)C(C)(C)C1` (centres unmarked) [Compound 1770, N—[[6-[(2,5-difluorophenyl)methylamino]-2-pyridyl]sulfonyl]-2-(2,2,4-trimethylpyrrolidin-1-yl)pyridine-3-carboxamide], for which the EC30 result is listed as “+++ (“+++” means <3 uM)”.
The value for `COC1CCCCC1Oc1nc(-c2cc(F)cc(OCC(C)C)c2)ccc1C(=O)NS(=O)(=O)c1cccc(N)n1` (centres unmarked) [Compound 1622, N-[(6-amino-2-pyridyl)sulfonyl]-6-(3-fluoro-5-isobutoxy-phenyl)-2-(2-methoxycyclohexoxy)pyridine-3-carboxamide] was “+++ (“+++” means <3 uM)”.
The value for `Cc1cc(C)c(Oc2nc(C3=CC(C)(C)OCC3)ccc2C(=O)NS(=O)(=O)c2cccc(N)n2)c(C)c1` [Compound 1460, N-[(6-amino-2-pyridyl)sulfonyl]-6-(6,6-dimethyl-2,3-dihydropyran-4-yl)-2-(2,4,6-trimethylphenoxy)pyridine-3-carboxamide] was “+++ (“+++” means <3 uM)”; that for `CC(C)COc1cc(F)cc(-c2cc(O)c(C(=O)NS(=O)(=O)c3cccc(N)n3)c(N3[C@H](C)CC[C@@H]3C)n2)c1` [Compound 1430, N-[(6-amino-2-pyridyl)sulfonyl]-2-[(2S,5R)-2,5-dimethylpyrrolidin-1-yl]-6-(3-fluoro-5-isobutoxy-phenyl)-4-hydroxy-pyridine-3-carboxamide] was “+++ (“+++” means <3 uM)”.
As for `CC(C)Oc1ccc(-c2ccc(C(=O)NS(=O)(=O)c3ccn[nH]3)c(N3C[C@H](C)C[C@@H](C)C3)n2)cn1` [Compound 990, 2-[(3R,5R)-3,5-dimethyl-1-piperidyl]-6-(6-isopropoxy-3-pyridyl)-N-(1H-pyrazol-5-ylsulfonyl)pyridine-3-carboxamide], the EC30 entry is “+++ (“+++” means <3 uM)”.
The value for `CCOc1cccc2c1CN(Cc1c(C)cccc1C)C2(C)C(=O)NS(=O)(=O)c1cccc(F)n1` (centres unmarked) [Compound 1676, 2-[(2,6-dimethylphenyl)methyl]-4-ethoxy-N-[(6-fluoro-2-pyridyl)sulfonyl]-1-methyl-isoindoline-1-carboxamide] was “+++ (“+++” means <3 uM)”; that for `CCN(CC)c1ncc(-c2ccc(C(=O)NS(=O)(=O)c3cccc(N)n3)c(N3C[C@@H](C)CC3(C)C)n2)cc1C` [Compound 1915, N-[(6-amino-2-pyridyl)sulfonyl]-6-[6-(diethylamino)-5-methyl-3-pyridyl]-2-[(4S)-2,2,4-trimethylpyrrolidin-1-yl]pyridine-3-carboxamide] was “+++ (“+++” means <3 uM)”; that for `CC(C)COc1cc(F)cc(-c2ccc(C(=O)NS(=O)(=O)c3cccc(N)n3)c(O[C@@H]3C[C@H]4CC[C@@H]3C4)n2)c1` [Compound 1216, N-[(6-amino-2-pyridyl)sulfonyl]-6-(3-fluoro-5-isobutoxy-phenyl)-2-[(1R,2R,4S)-norbornan-2-yl]oxy-pyridine-3-carboxamide] was “+++ (“+++” means <3 uM)”.
With `Cc1cc(C)c(Oc2nc(-c3ccc(C(C)(C)O)cc3)ccc2C(=O)NS(=O)(=O)c2cccc(N)n2)c(C)c1` [Compound 1147, N-[(6-amino-2-pyridyl)sulfonyl]-6-[4-(1-hydroxy-1-methyl-ethyl)phenyl]-2-(2,4,6-trimethylphenoxy)pyridine-3-carboxamide], the EC30 result is “++ (“++” means between 3 uM and 10 uM)”.
The value for `CC(C)Cn1cc(-c2ccc(C(=O)NS(=O)(=O)c3nccnc3N)c(N3CCC(C)CC3)n2)cn1` [Compound 1288, N-(3-aminopyrazin-2-yl)sulfonyl-6-(1-isobutylpyrazol-4-yl)-2-(4-methyl-1-piperidyl)pyridine-3-carboxamide] was “++ (“++” means between 3 uM and 10 uM)”; that for `CC(C)COc1cc(F)cc(-c2ccc(C(=O)NS(=O)(=O)c3cccc(N)n3)c(N3CCCC34CCCC4)n2)c1` [Compound 926, N-[(6-amino-2-pyridyl)sulfonyl]-2-(9-azaspiro[4.4]nonan-9-yl)-6-(3-fluoro-5-isobutoxy-phenyl)pyridine-3-carboxamide] was “+++ (“+++” means <3 uM)”.
For `CC1CN(c2nc(-c3ccc(C(C)C)nc3)ccc2C(=O)NS(=O)(=O)c2cccc(N)n2)C(C)(C)C1` (centres unmarked) [Compound 896, N-[(6-amino-2-pyridyl)sulfonyl]-6-(6-isopropyl-3-pyridyl)-2-(2,2,4-trimethylpyrrolidin-1-yl)pyridine-3-carboxamide], the EC30 entry is reported as “+++ (“+++” means <3 uM)”.
Consider `Cc1cc(C)c(Oc2nc(-c3ccc4c(c3)CCO4)ccc2C(=O)NS(=O)(=O)c2cccc(N)n2)c(C)c1` [Compound 1048], for which the EC30 result is given as “+++ (“+++” means <3 uM)”.
Consider `Cc1cc(C)c(Oc2ncc(Cc3ccccc3)cc2C(=O)NS(=O)(=O)c2cccc(N)n2)c(C)c1` [Compound 1233, N-[(6-amino-2-pyridyl)sulfonyl]-5-benzyl-2-(2,4,6-trimethylphenoxy)pyridine-3-carboxamide], for which the EC30 entry is “++ (“++” means between 3 uM and 10 uM)”.
The same measure for `CC(C)COc1cc(F)cc(-c2ccc(C(=O)NS(=O)(=O)c3cccc(N)n3)c(N3C[C@H](C)CC34CCC4)n2)c1` [Compound 1737]: “+++ (“+++” means <3 uM)”; for `CC(C)(C)c1ccc(C(=O)NS(=O)(=O)c2cccc(N)n2)c(N2CCC(C3CC3)C2(C)C)n1` (centres unmarked) [Compound 1974]: “+++ (“+++” means <3 uM)”; for `CC1CN(c2ncccc2C(=O)NS(=O)(=O)c2cccc(OCCC3CCCCC3)n2)C(C)(C)C1` (centres unmarked) [Compound 1800, N—[[6-(2-cyclohexylethoxy)-2-pyridyl]sulfonyl]-2-(2,2,4-trimethylpyrrolidin-1-yl)pyridine-3-carboxamide]: “+++ (“+++” means <3 uM)”.
In the case of `Cc1cc(C)c(Oc2nc(C(F)(F)C(F)(F)F)ccc2C(=O)NS(=O)(=O)c2cccc(N)n2)c(C)c1` [Compound 853, N-[(6-amino-2-pyridyl)sulfonyl]-6-(1,1,2,2,2-pentafluoroethyl)-2-(2,4,6-trimethylphenoxy)pyridine-3-carboxamide], the EC30 entry is “+++ (“+++” means <3 uM)”.
Consider `COc1ccc(-c2ccc(C(=O)NS(=O)(=O)c3cccnc3N)c(N3C[C@@H](C)CC3(C)C)n2)c(C)n1` [Compound 1866, N-[(2-amino-3-pyridyl)sulfonyl]-6-(6-methoxy-2-methyl-3-pyridyl)-2-[(4S)-2,2,4-trimethylpyrrolidin-1-yl]pyridine-3-carboxamide], for which the EC30 result is reported as “+++ (“+++” means <3 uM)”.
Turning to `CC(C)Oc1ccc(-c2nc(N3C[C@H](C)CC3(C)C)ccc2C(=O)NS(=O)(=O)c2cccc(N)n2)cn1` [Compound 1491, N-[(6-amino-2-pyridyl)sulfonyl]-2-(6-isopropoxy-3-pyridyl)-6-[(4R)-2,2,4-trimethylpyrrolidin-1-yl]pyridine-3-carboxamide], the EC30 result is “++ (“++” means between 3 uM and 10 uM)”.
`CCc1cccc2c(C(=O)NS(=O)(=O)c3cccc(N)n3)n(Cc3c(C)cc(C)cc3C)nc12` [Compound 1086, N-[(6-amino-2-pyridyl)sulfonyl]-7-ethyl-2-[(2,4,6-trimethylphenyl)methyl]indazole-3-carboxamide]: the EC30 entry was “++ (“++” means between 3 uM and 10 uM)”.
On to `C=C1CCN(c2nc(-c3cc(F)cc(OCC(C)C)c3)ccc2C(=O)NS(=O)(=O)c2cccc(N)n2)CC1` [Compound 1162, N-[(6-amino-2-pyridyl)sulfonyl]-6-(3-fluoro-5-isobutoxy-phenyl)-2-(4-methylene-1-piperidyl)pyridine-3-carboxamide], for which the EC30 entry was “+++ (“+++” means <3 uM)”.
`CC1CCCN(c2nc(C(C)(C)C)ccc2C(=O)NS(=O)(=O)c2cccc(N)n2)C1` (centres unmarked) [Compound 1008, N-[(6-amino-2-pyridyl)sulfonyl]-6-tert-butyl-2-(3-methyl-1-piperidyl)pyridine-3-carboxamide]: the EC30 result is reported as “+++ (“+++” means <3 uM)”.
The same measure for `CC(C)COc1cc(F)cc(-c2ccc(C(=O)NS(=O)(=O)c3cccc(N)n3)c(N3CCC(Cc4ccccc4)C3C)n2)c1` (centres unmarked) [Compound 969, N-[(6-amino-2-pyridyl)sulfonyl]-2-(3-benzyl-2-methyl-pyrrolidin-1-yl)-6-(3-fluoro-5-isobutoxy-phenyl)pyridine-3-carboxamide]: “+++ (“+++” means <3 uM)”.
The same measure for `CC1CN(c2nc(-c3cnc(OC(C)C)cn3)ccc2C(=O)NS(=O)(=O)c2cccc(N)n2)C(C)(C)C1` (centres unmarked) [Compound 965, N-[(6-amino-2-pyridyl)sulfonyl]-6-(5-isopropoxypyrazin-2-yl)-2-(2,2,4-trimethylpyrrolidin-1-yl)pyridine-3-carboxamide]: “+++ (“+++” means <3 uM)”.
For `CC(C)COc1cc(F)cc(-c2ccc(C(=O)NS(=O)(=O)c3cccc(N)n3)c(O[C@H]3CCOC3)n2)c1` [Compound 1464], the EC30 result is given as “+++ (“+++” means <3 uM)”.
